Experiments:
Format in all cases: cell-based
Conditions in all cases: 24 hours of compound treatment
[1] = target: T1, IKZF1 (Homo sapiens, UniProt Q13422+Q96SW2); test: Western-blot assay of substrate protein degradation in hPBMCs, IKZF1
T1 construct: endogenous in cells; host or cells: hPBMCs (Milecell Biotechnologies)
Description: (§1) After 24 hours of compounds treatment, cells were harvested and lysed in RIPA protein lysate containing protease inhibitors on ice for 30 min, followed by centrifugation. The supernatant was aspirated as the extracted total cell protein. The protein concentration of the supernatant was determined using the conventional BCA (Bicinchoninic Acid) assay. • (2) To the collected supernatant, 5X SDS sample loading buffer was added, followed by denaturation at 95°C for 5 minutes. The denatured samples were then separated by SDS-PAGE electrophoresis on a polyacrylamide gel, transferred onto a nitrocellulose membrane (0.45 µm NC membrane), blocked with blocking buffer at room temperature for 1 hour, and subjected to antibody incubation and development procedures according to the antibody manufacturer's instructions (Cell Signaling Technology Company). […]
(§2) Target protein remaining (%) refers to the percentage of target protein remaining in cells after treatment with protein degrader compounds.
(§3) Calculation method for target protein remaining (%): Use ImageJ software to measure grayscale values of Western blot bands from drug (protein degrader)-treated samples. The grayscale value of drug-treated bands is divided by that of internal control protein bands, and the resulting quotient is normalized to obtain the relative percentage of remaining target protein after protein degrader treatment. Target protein degradation rate(%) = 1−target protein remaining(%). [formula]

[2] = target: T2, IKZF2 (Homo sapiens, UniProt Q96SW2+Q9UKS7); test: Western-blot assay of substrate protein degradation in hPBMCs, IKZF2
T2 construct: endogenous in cells; host or cells: hPBMCs (Milecell Biotechnologies)
T2 sequence (Q9UKS7 whole entry): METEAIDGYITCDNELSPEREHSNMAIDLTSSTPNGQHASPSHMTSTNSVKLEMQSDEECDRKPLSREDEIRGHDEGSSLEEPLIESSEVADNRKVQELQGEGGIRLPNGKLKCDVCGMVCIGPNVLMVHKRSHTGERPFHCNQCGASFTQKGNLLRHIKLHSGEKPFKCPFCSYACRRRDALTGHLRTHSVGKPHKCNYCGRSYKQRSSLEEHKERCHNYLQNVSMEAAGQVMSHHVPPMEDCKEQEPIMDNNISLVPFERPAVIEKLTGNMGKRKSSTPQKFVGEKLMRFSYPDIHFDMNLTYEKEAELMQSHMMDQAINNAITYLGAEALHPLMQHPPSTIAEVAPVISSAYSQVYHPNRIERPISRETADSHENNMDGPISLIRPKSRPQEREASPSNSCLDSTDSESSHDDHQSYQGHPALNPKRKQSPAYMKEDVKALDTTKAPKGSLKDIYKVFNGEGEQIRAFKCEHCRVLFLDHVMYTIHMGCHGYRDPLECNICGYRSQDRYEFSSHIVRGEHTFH
T2 sequence (Q96SW2 whole entry): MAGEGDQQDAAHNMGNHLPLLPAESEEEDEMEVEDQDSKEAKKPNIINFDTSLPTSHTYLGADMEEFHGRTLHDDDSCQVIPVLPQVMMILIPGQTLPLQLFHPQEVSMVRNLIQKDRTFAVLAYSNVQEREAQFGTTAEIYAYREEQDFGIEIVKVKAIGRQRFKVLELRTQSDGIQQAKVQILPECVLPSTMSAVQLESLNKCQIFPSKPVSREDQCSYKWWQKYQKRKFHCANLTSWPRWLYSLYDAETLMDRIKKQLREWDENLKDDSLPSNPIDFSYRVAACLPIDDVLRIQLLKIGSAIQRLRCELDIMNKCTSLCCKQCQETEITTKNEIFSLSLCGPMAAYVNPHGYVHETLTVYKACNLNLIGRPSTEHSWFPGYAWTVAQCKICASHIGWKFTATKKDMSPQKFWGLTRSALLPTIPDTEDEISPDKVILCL
T2 sequence (Q16531 whole entry partner): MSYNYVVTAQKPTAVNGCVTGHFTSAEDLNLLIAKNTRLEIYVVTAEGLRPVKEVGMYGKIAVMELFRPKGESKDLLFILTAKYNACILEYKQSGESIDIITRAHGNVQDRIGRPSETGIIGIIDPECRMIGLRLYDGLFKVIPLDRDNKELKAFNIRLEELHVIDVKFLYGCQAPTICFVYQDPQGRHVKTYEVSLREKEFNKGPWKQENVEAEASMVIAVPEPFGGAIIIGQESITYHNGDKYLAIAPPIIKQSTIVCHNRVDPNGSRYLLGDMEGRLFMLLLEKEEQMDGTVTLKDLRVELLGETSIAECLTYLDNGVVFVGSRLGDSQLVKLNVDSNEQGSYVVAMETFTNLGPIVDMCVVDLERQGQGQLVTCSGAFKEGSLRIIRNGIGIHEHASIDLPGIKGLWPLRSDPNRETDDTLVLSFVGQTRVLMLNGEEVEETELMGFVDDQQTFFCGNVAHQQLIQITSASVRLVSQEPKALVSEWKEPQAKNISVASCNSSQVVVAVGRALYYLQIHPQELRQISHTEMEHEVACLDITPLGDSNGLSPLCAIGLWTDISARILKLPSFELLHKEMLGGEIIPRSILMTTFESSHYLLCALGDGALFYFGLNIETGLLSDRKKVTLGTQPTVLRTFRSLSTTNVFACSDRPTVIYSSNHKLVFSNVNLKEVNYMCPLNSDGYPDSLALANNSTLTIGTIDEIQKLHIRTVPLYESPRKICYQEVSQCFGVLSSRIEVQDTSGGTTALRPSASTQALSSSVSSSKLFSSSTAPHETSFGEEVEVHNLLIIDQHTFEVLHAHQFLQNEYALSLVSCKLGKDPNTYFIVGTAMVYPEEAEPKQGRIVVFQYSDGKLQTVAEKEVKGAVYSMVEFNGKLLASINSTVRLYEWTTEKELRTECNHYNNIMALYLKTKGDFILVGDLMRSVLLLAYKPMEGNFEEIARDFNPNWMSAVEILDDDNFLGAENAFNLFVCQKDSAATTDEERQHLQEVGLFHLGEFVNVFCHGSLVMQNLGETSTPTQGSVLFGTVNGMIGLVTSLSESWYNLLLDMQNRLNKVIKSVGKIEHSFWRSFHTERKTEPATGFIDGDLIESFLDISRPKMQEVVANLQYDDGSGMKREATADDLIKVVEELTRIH
Description: as §1, §2, §3

[3] = target: T3, GSPT1 (Homo sapiens, UniProt P15170+Q96SW2); test: Western-blot assay of substrate protein degradation in hPBMCs, GSPT1
T3 construct: endogenous in cells; host or cells: hPBMCs (Milecell Biotechnologies)
T3 sequence (P15170 whole entry): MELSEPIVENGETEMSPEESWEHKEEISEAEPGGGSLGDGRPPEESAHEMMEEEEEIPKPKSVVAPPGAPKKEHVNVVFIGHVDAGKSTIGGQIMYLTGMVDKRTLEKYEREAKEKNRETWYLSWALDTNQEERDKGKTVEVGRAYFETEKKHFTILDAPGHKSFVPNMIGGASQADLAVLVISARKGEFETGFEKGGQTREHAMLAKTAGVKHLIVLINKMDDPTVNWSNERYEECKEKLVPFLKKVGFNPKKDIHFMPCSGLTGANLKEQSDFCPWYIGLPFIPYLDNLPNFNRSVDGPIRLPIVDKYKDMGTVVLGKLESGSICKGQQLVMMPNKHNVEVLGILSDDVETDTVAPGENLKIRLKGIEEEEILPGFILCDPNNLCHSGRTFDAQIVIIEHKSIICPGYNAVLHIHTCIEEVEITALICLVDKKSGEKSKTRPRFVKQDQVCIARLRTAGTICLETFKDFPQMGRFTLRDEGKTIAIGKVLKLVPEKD
T3 sequence (Q96SW2 whole entry): as the sequence (Q96SW2 whole entry) above
T3 sequence (Q16531 whole entry partner): as the sequence (Q16531 whole entry partner) above
Description: as §1, §2, §3

[4] = target: T4, IKZF3 (Homo sapiens, UniProt Q96SW2+Q9UKT9); test: Western-blot assay of substrate protein degradation in hPBMCs, IKZF3
T4 construct: endogenous in cells; host or cells: hPBMCs (Milecell Biotechnologies)
Description: as §1, §2, §3

[5] = target: T5, WEE1 (Homo sapiens, UniProt P30291+Q96SW2); test: Western-blot assay of substrate protein degradation in hPBMCs, WEE1
T5 construct: endogenous in cells; host or cells: hPBMCs (Milecell Biotechnologies)
T5 sequence (P30291 whole entry): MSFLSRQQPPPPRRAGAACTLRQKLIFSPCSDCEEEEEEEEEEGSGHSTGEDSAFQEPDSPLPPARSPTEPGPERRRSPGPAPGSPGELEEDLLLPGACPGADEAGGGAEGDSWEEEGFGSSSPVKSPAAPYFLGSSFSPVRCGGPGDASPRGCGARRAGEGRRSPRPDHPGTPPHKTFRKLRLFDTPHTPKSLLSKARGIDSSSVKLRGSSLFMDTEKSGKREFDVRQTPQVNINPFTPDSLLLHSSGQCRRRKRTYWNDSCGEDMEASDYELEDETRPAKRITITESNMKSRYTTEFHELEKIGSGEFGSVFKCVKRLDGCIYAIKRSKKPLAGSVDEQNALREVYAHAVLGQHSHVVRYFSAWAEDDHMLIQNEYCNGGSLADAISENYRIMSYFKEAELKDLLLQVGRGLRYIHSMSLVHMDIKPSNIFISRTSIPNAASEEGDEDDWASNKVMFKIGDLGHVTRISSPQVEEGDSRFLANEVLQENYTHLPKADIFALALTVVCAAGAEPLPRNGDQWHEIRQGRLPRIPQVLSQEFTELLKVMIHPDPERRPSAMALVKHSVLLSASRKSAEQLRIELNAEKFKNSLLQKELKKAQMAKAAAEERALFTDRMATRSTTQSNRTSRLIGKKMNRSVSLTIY
T5 sequence (Q96SW2 whole entry): as the sequence (Q96SW2 whole entry) above
T5 sequence (Q16531 whole entry partner): as the sequence (Q16531 whole entry partner) above
Description: as §1, §2, §3

[6] = target: T6, CK1α (Homo sapiens, UniProt P48729+Q96SW2); test: Western-blot assay of substrate protein degradation in hPBMCs, CK1α
T6 construct: endogenous in cells; host or cells: hPBMCs (Milecell Biotechnologies)
T6 sequence (P48729 whole entry): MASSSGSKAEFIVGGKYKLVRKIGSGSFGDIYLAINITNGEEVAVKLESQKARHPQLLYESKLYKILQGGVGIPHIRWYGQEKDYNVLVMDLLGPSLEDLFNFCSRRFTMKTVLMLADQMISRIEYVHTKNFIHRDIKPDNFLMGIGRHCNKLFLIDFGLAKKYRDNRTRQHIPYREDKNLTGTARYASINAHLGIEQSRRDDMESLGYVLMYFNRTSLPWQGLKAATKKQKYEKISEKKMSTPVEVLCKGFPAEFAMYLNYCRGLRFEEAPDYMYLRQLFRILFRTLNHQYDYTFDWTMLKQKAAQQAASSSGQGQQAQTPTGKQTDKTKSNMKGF
T6 sequence (Q96SW2 whole entry): as the sequence (Q96SW2 whole entry) above
T6 sequence (Q16531 whole entry partner): as the sequence (Q16531 whole entry partner) above
Description: as §1, §2, §3

[7] = compounds tested at 50 nM and 500 nM (concentration of the table not stated)
[8] = 50 nM and 500 nM tested (concentration behind the class not stated)

T1 sequence (Q13422 whole entry): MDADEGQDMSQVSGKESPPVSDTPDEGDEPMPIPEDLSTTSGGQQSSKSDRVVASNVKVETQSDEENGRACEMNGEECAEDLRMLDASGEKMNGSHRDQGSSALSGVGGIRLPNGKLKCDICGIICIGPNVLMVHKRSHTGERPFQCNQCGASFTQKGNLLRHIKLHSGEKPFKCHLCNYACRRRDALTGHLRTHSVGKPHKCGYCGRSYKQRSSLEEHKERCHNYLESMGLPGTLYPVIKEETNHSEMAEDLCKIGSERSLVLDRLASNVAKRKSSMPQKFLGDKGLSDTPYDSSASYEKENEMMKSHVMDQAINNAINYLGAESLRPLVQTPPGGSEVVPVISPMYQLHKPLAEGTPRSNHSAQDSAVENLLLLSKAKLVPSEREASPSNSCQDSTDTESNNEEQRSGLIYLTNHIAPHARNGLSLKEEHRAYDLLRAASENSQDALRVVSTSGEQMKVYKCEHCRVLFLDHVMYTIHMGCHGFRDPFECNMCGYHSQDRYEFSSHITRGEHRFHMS
T1 sequence (Q96SW2 whole entry): as the sequence (Q96SW2 whole entry) above
T1 sequence (Q16531 whole entry partner): as the sequence (Q16531 whole entry partner) above

| SMILES | IKZF 1 substrate protein remaining % [1, 7] | IKZF2 substrate protein remaining % [2, 7] | GSPT1 substrate protein remaining % [3, 7] | IKZF3 substrate protein remaining % [4, 7] | Weel substrate protein remaining % [5, 7] | CK1a substrate protein remaining % [6, 7] | IKZF 1 substrate protein remaining % [1, 8] | IKZF2 substrate protein remaining % [2, 8] | GSPT1 substrate protein remaining % [3, 8] | IKZF3 substrate protein remaining % [4, 8] | Weel substrate protein remaining % [5, 8] | CK1a substrate protein remaining % [6, 8] |
| --- | --- | --- | --- | --- | --- | --- | --- | --- | --- | --- | --- | --- |
| O=C1CCC(N2C(=O)c3ccc(CN4CC=C(c5ccnc6cc(F)ccc56)CC4)cc3C2=O)C(=O)N1 (stereo not drawn) [GT-06267, 2-(2,6-dioxopiperidin-3-yl)-5-((4-(7-fluoroquinolin-4-yl)-3,6-dihydropyridin-1(2H)-yl)methyl)isoindoline-1,3-dione] | B (80%< substrate protein remaining %≤ 100%) | A (0% ≤ substrate protein remaining % ≤ 80%) | A (0% ≤ substrate protein remaining % ≤ 80%) | A (0% ≤ substrate protein remaining % ≤ 80%) | A (0% ≤ substrate protein remaining % ≤ 80%) | A (0% ≤ substrate protein remaining % ≤ 80%) |  |  |  |  |  |  |
| O=C1CCC(N2C(=O)c3ccc(CN4CC=C(c5cccc6cnccc56)CC4)cc3C2=O)C(=O)N1 (stereo not drawn) [GT-06268, 2-(2,6-dioxopiperidin-3-yl)-5-((4-(isoquinolin-5-yl)-3,6-dihydropyridin-1(2H)-yl)methyl)isoindoline-1,3-dione] | B (80%< substrate protein remaining %≤ 100%) | A (0% ≤ substrate protein remaining % ≤ 80%) | A (0% ≤ substrate protein remaining % ≤ 80%) | A (0% ≤ substrate protein remaining % ≤ 80%) | A (0% ≤ substrate protein remaining % ≤ 80%) | A (0% ≤ substrate protein remaining % ≤ 80%) |  |  |  |  |  |  |
| O=C1CCC(N2C(=O)c3ccc(CN4CC(C5CCOc6cc(F)ccc65)C4)cc3C2=O)C(=O)N1 (stereo not drawn) [GT-06269, 2-(2,6-dioxopiperidin-3-yl)-5-((3-(7-fluorochroman-4-yl)azetidin-1-yl)methyl)isoindoline-1,3-dione] | B (80%< substrate protein remaining %≤ 100%) | A (0% ≤ substrate protein remaining % ≤ 80%) | A (0% ≤ substrate protein remaining % ≤ 80%) | A (0% ≤ substrate protein remaining % ≤ 80%) | B (80%< substrate protein remaining %≤ 100%) | B (80%< substrate protein remaining %≤ 100%) |  |  |  |  |  |  |
| O=C1CCC(N2C(=O)c3ccc(CN4CC(c5ccnc6cc(F)ccc56)C4)cc3C2=O)C(=O)N1 (stereo not drawn) [GT-06270, 2-(2,6-dioxopiperidin-3-yl)-5-((3-(7-fluoroquinolin-4-yl)azetidin-1-yl)methyl)isoindoline-1,3-dione] |  |  |  |  |  |  | B (80%< substrate protein remaining %≤ 100%) | B (80%< substrate protein remaining %≤ 100%) | A (0% ≤ substrate protein remaining % ≤ 80%) | B (80%< substrate protein remaining %≤ 100%) | B (80%< substrate protein remaining %≤ 100%) | B (80%< substrate protein remaining %≤ 100%) |
| O=C1CCC(N2C(=O)c3ccc(CN4CC(N5CCc6cc(F)ccc65)C4)cc3C2=O)C(=O)N1 (stereo not drawn) [GT-06271, 2-(2,6-dioxopiperidin-3-yl)-5-((3-(5-fluoroindolin-1-yl)azetidin-1-yl)methyl)isoindoline-1,3-dione] |  |  |  |  |  |  | A (0% ≤ substrate protein remaining % ≤ 80%) | A (0% ≤ substrate protein remaining % ≤ 80%) | A (0% ≤ substrate protein remaining % ≤ 80%) | B (80%< substrate protein remaining %≤ 100%) | A (0% ≤ substrate protein remaining % ≤ 80%) | B (80%< substrate protein remaining %≤ 100%) |
| O=C1CCC(N2C(=O)c3ccc(CN4CCN(c5cccc(Cl)c5Cl)CC4)cc3C2=O)C(=O)N1 (stereo not drawn) [GT-06273, 5-((4-(2,3-dichlorophenyl)piperazin-1-yl)methyl)-2-(2,6-dioxopiperidin-3-yl)isoindoline-1,3-dione] |  |  |  |  |  |  | A (0% ≤ substrate protein remaining % ≤ 80%) | A (0% ≤ substrate protein remaining % ≤ 80%) | A (0% ≤ substrate protein remaining % ≤ 80%) | A (0% ≤ substrate protein remaining % ≤ 80%) | A (0% ≤ substrate protein remaining % ≤ 80%) | A (0% ≤ substrate protein remaining % ≤ 80%) |
| O=C1CCC(N2C(=O)c3ccc(CN4CCN(c5ccccc5Cl)CC4)cc3C2=O)C(=O)N1 (stereo not drawn) [GT-06274, 5-((4-(2-chlorophenyl)piperazin-1-yl)methyl)-2-(2,6-dioxopiperidin-3-yl)isoindoline-1,3-dione] |  |  |  |  |  |  | B (80%< substrate protein remaining %≤ 100%) | B (80%< substrate protein remaining %≤ 100%) | A (0% ≤ substrate protein remaining % ≤ 80%) | B (80%< substrate protein remaining %≤ 100%) | B (80%< substrate protein remaining %≤ 100%) | B (80%< substrate protein remaining %≤ 100%) |
| O=C1CCC(N2C(=O)c3ccc(CN4CCN(c5ccc(Cl)cc5)CC4)cc3C2=O)C(=O)N1 (stereo not drawn) [GT-06275, 5-((4-(4-chlorophenyl)piperazin-1-yl)methyl)-2-(2,6-dioxopiperidin-3-yl)isoindoline-1,3-dione] |  |  |  |  |  |  | B (80%< substrate protein remaining %≤ 100%) | B (80%< substrate protein remaining %≤ 100%) | A (0% ≤ substrate protein remaining % ≤ 80%) | B (80%< substrate protein remaining %≤ 100%) | B (80%< substrate protein remaining %≤ 100%) | B (80%< substrate protein remaining %≤ 100%) |
| Cc1cccc(N2CCN(Cc3ccc4c(c3)C(=O)N(C3CCC(=O)NC3=O)C4=O)CC2)c1 (stereo not drawn) [GT-06276, 2-(2,6-dioxopiperidin-3-yl)-5-((4-(m-tolyl)piperazin-1-yl)methyl)isoindoline-1,3-dione] |  |  |  |  |  |  | A (0% ≤ substrate protein remaining % ≤ 80%) | A (0% ≤ substrate protein remaining % ≤ 80%) | A (0% ≤ substrate protein remaining % ≤ 80%) | B (80%< substrate protein remaining %≤ 100%) | B (80%< substrate protein remaining %≤ 100%) | B (80%< substrate protein remaining %≤ 100%) |
| Cc1ccc(N2CCN(Cc3ccc4c(c3)C(=O)N(C3CCC(=O)NC3=O)C4=O)CC2)cc1 (stereo not drawn) [GT-06277, 2-(2,6-dioxopiperidin-3-yl)-5-((4-(p-tolyl)piperazin-1-yl)methyl)isoindoline-1,3-dione] |  |  |  |  |  |  | B (80%< substrate protein remaining %≤ 100%) | B (80%< substrate protein remaining %≤ 100%) | A (0% ≤ substrate protein remaining % ≤ 80%) | B (80%< substrate protein remaining %≤ 100%) | B (80%< substrate protein remaining %≤ 100%) | B (80%< substrate protein remaining %≤ 100%) |
| Cc1cc(C2=CCN(Cc3ccc4c(c3)C(=O)N(C3CCC(=O)NC3=O)C4=O)CC2)cs1 (stereo not drawn) [GT-06279, 2-(2,6-dioxopiperidin-3-yl)-5-((4-(5-methylthiophen-3-yl)-3,6-dihydropyridin-1(2H)-yl)methyl)isoindoline-1,3-dione] |  |  |  |  |  |  | A (0% ≤ substrate protein remaining % ≤ 80%) | A (0% ≤ substrate protein remaining % ≤ 80%) | A (0% ≤ substrate protein remaining % ≤ 80%) | A (0% ≤ substrate protein remaining % ≤ 80%) | A (0% ≤ substrate protein remaining % ≤ 80%) | A (0% ≤ substrate protein remaining % ≤ 80%) |
| Cc1ccsc1C1CCN(Cc2ccc3c(c2)C(=O)N(C2CCC(=O)NC2=O)C3=O)CC1 (stereo not drawn) [GT-06280, 2-(2,6-dioxopiperidin-3-yl)-5-((4-(3-methylthiophen-2-yl)piperidin-1-yl)methyl)isoindoline-1,3-dione] |  |  |  |  |  |  | B (80%< substrate protein remaining %≤ 100%) | B (80%< substrate protein remaining %≤ 100%) | A (0% ≤ substrate protein remaining % ≤ 80%) | B (80%< substrate protein remaining %≤ 100%) | B (80%< substrate protein remaining %≤ 100%) | B (80%< substrate protein remaining %≤ 100%) |

From patent EP4745137A1 (Gluetacs Therapeutics (Shanghai) Co., Ltd., priority 2023, dated 2025)
